Laboratory results: ChEMBL document CHEMBL1201861, “Genomics of Drug Sensitity in Cancer screening data, Wellcome Trust Sanger Institute”

Experiments:
Type in all cases: functional, cell-based
NCI-H1048 = test: cells; conditions: Homo sapiens;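 further: growth inhibition of human NCI-H1048 cells, read out with a cell viability assay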
Description: SANGER: Inhibition of human NCI-H1048 cell growth in a cell viability assay.

NCI-H1666 = test: cells; conditions: Homo sapiens;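 further: growth inhibition of the cell line, read out with a cell viability assay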
Description: SANGER: Inhibition of human NCI-H1666 cell growth in a cell viability assay.

TGBC11TKB = test: cells; conditions: Homo sapiens;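 further: growth inhibition of human TGBC11TKB cells, measured by a cell viability assay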
Description: SANGER: Inhibition of human TGBC11TKB cell growth in a cell viability assay.

SW900 = test: cells; conditions: Homo sapiens;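 further: IC50 is the concentration that inhibits SW900 cell growth, measured by a cell viability assay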
Description: SANGER: Inhibition of human SW900 cell growth in a cell viability assay.

SW 1116 = test: cells; conditions: Homo sapiens;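 further: growth inhibition of SW1116 cells, read out with a cell viability assay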
Description: SANGER: Inhibition of human SW1116 cell growth in a cell viability assay.

BALL-1 = test: cells; conditions: Homo sapiens;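 further: growth inhibition of BALL-1 cells, read out with a cell viability assay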
Description: SANGER: Inhibition of human BALL-1 cell growth in a cell viability assay.

D-423MG = test: cells; conditions: Homo sapiens
Description: SANGER: Inhibition of human D-423MG cell growth in a cell viability assay.

CFPAC-1 = test: cells; conditions: Homo sapiens;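 further: cell viability readout used to gauge suppression of CFPAC-1 cell proliferation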
Description: SANGER: Inhibition of human CFPAC-1 cell growth in a cell viability assay.

OC-314 = test: cells; conditions: Homo sapiens
Description: SANGER: Inhibition of human OC-314 cell growth in a cell viability assay.

A549 = test: cells; conditions: Homo sapiens;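 further: growth inhibition of A549 cells, read out with a cell viability assay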
Description: SANGER: Inhibition of human A549 cell growth in a cell viability assay.

RH-18 = test: cells; conditions: Homo sapiens, Rh18;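 further: growth inhibition of human RH-18 cells, read out with a cell viability assay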
Description: SANGER: Inhibition of human RH-18 cell growth in a cell viability assay.

ZR-75-30 = test: cells; conditions: Homo sapiens;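 further: growth inhibition of ZR-75-30 cells, measured with a cell viability readout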
Description: SANGER: Inhibition of human ZR-75-30 cell growth in a cell viability assay.

NCI-H2291 = test: cells; conditions: Homo sapiens
Description: SANGER: Inhibition of human NCI-H2291 cell growth in a cell viability assay.

H-EMC-SS = test: cells; conditions: Homo sapiens
Description: SANGER: Inhibition of human H-EMC-SS cell growth in a cell viability assay.

NBsusSR = test: cells; conditions: Homo sapiens;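 further: growth inhibition of the human cell line, read out with a cell viability assay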
Description: SANGER: Inhibition of human NBsusSR cell growth in a cell viability assay.

NCI-H2029 = test: cells; conditions: Homo sapiens;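 further: Read-out is a viability assay on the cultured cells, and IC50 is the concentration that suppresses cell growth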
Description: SANGER: Inhibition of human NCI-H2029 cell growth in a cell viability assay.

KNS-62 = test: cells; conditions: Homo sapiens;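 further: inhibition of cell growth, read out with a cell viability assay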
Description: SANGER: Inhibition of human KNS-62 cell growth in a cell viability assay.

TI-73 = test: cells; conditions: Homo sapiens;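 further: cell viability assay measuring how much compounds suppress growth of the cultured cell line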
Description: SANGER: Inhibition of human TI-73 cell growth in a cell viability assay.

D-566MG = test: cells; conditions: Homo sapiens
BT-549 = test: cells; conditions: Homo sapiens
Description: SANGER: Inhibition of human BT-549 cell growth in a cell viability assay.

H9 = test: cells; conditions: Homo sapiens
Description: SANGER: Inhibition of human H9 cell growth in a cell viability assay.

LU-135 = test: cells; conditions: Homo sapiens
Description: SANGER: Inhibition of human LU-135 cell growth in a cell viability assay.

ECC10 = test: cells; conditions: Homo sapiens;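 further: growth inhibition of ECC10 cells, read out by a cell viability assay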
Description: SANGER: Inhibition of human ECC10 cell growth in a cell viability assay.

NCI-H128 = test: SANGER: Inhibition of human NCI-H128 cell growth in a cell viability assay.
SKM-1 = test: SANGER: Inhibition of human SKM-1 cell growth in a cell viability assay.
CP67-MEL = test: SANGER: Inhibition of human CP67-MEL cell growth in a cell viability assay.
EW-12 = test: SANGER: Inhibition of human EW-12 cell growth in a cell viability assay.
NCI-H2107 = test: SANGER: Inhibition of human NCI-H2107 cell growth in a cell viability assay.
RL95-2 = test: cells; conditions: Homo sapiens;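 further: RL95-2 growth inhibition determined through a cell viability readout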
Description: SANGER: Inhibition of human RL95-2 cell growth in a cell viability assay.

KP-N-RT-BM-1 = test: SANGER: Inhibition of human KP-N-RT-BM-1 cell growth in a cell viability assay.
MDA-MB-468 = test: cells; conditions: Homo sapiens
Description: SANGER: Inhibition of human MDA-MB-468 cell growth in a cell viability assay.

HCC1143 = test: cells; conditions: Homo sapiens;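 further: growth inhibition of human HCC1143 cells, read out with a cell viability assay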
Description: SANGER: Inhibition of human HCC1143 cell growth in a cell viability assay.

COLO 205 = test: cells; conditions: Homo sapiens
Description: SANGER: Inhibition of human COLO-205 cell growth in a cell viability assay.

SNU-475 = test: cells; conditions: Homo sapiens
Description: SANGER: Inhibition of human SNU-475 cell growth in a cell viability assay.

TT = test: cells; conditions: Homo sapiens
Description: SANGER: Inhibition of human TT cell growth in a cell viability assay.

MFE-296 = test: SANGER: Inhibition of human MFE-296 cell growth in a cell viability assay.
DV-90 = test: cells; conditions: Homo sapiens;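 further: Read-out is a viability assay, with IC50 reflecting the drop in DV-90 cell growth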
Description: SANGER: Inhibition of human DV-90 cell growth in a cell viability assay.

C-4-II = test: SANGER: Inhibition of human C-4-II cell growth in a cell viability assay.
EFE-184 = test: cells; conditions: Homo sapiens
Description: SANGER: Inhibition of human EFE-184 cell growth in a cell viability assay.

PLC-PRF-5 = test: cells; conditions: Homo sapiens;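 further: growth inhibition of human PLC-PRF-5 cells, read out with a viability assay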
Description: SANGER: Inhibition of human PLC-PRF-5 cell growth in a cell viability assay.

SK-CO-1 = test: cells; conditions: Homo sapiens;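 further: growth inhibition of SK-CO-1 cells, determined by a viability readout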
Description: SANGER: Inhibition of human SK-CO-1 cell growth in a cell viability assay.

NCI-H1734 = test: cells; conditions: Homo sapiens;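 further: growth inhibition of human NCI-H1734 cells, read out with a cell viability assay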
Description: SANGER: Inhibition of human NCI-H1734 cell growth in a cell viability assay.

Caov-3 cell line = test: cells; conditions: Homo sapiens;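 further: cell growth inhibition read out by a viability assay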
Description: SANGER: Inhibition of human Caov-3 cell growth in a cell viability assay.

NCI-H1618 = test: cells; conditions: Homo sapiens;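 further: growth inhibition of human NCI-H1618 cells, measured by a cell viability assay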
Description: SANGER: Inhibition of human NCI-H1618 cell growth in a cell viability assay.

NCI-H2227 = test: cells; conditions: Homo sapiens;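 further: growth inhibition of the human cell line, read out with a cell viability assay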
Description: SANGER: Inhibition of human NCI-H2227 cell growth in a cell viability assay.

SNG-M = test: cells; conditions: Homo sapiens
Description: SANGER: Inhibition of human SNG-M cell growth in a cell viability assay.

DMS-53 = test: cells; conditions: Homo sapiens;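 further: cell viability assay measuring growth inhibition of human DMS-53 cells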
Description: SANGER: Inhibition of human DMS-53 cell growth in a cell viability assay.

NCI-H838 = test: cells; conditions: Homo sapiens;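 further: growth inhibition of human NCI-H838 cells, read out by a cell viability assay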
Description: SANGER: Inhibition of human NCI-H838 cell growth in a cell viability assay.

CCF-STTG1 = test: cells; conditions: Homo sapiens;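 further: growth inhibition of human CCF-STTG1 cells, determined with a cell viability read-out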
Description: SANGER: Inhibition of human CCF-STTG1 cell growth in a cell viability assay.

MES-SA = test: cells; conditions: Homo sapiens;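 further: growth inhibition of human MES-SA cells, read out with a cell viability assay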
Description: SANGER: Inhibition of human MES-SA cell growth in a cell viability assay.

COc1cc(Nc2c(C#N)cnc3cc(OCCCN4CCN(C)CC4)c(OC)cc23)c(Cl)cc1Cl [BOSUTINIB]
IC50 (NCI-H1048): > 2000 nM | IC50 (NCI-H1666): > 2000 nM | IC50 (TGBC11TKB): > 2000 nM | IC50 (SW900): > 2000 nM | IC50 (SW 1116): > 2000 nM | IC50 (BALL-1): > 2000 nM | IC50 (D-423MG): > 2000 nM | IC50 (CFPAC-1): > 2000 nM | IC50 (OC-314): 870 nM | IC50 (A549): > 2000 nM | IC50 (RH-18): > 2000 nM | IC50 (ZR-75-30): > 2000 nM | IC50 (NCI-H2291): > 2000 nM | IC50 (H-EMC-SS): > 2000 nM | IC50 (NBsusSR): > 2000 nM | IC50 (NCI-H2029): > 2000 nM | IC50 (KNS-62): > 2000 nM | IC50 (TI-73): 1020 nM | IC50 (D-566MG): 1570 nM | IC50 (BT-549): > 2000 nM | IC50 (H9): 435 nM | IC50 (LU-135): > 2000 nM | IC50 (ECC10): > 2000 nM

CC[C@@]1(O)C(=O)OCc2c1cc1n(c2=O)Cc2cc3ccccc3nc2-1 [CAMPTOTHECIN]
IC50 (NCI-H1048): 0.529 nM | IC50 (NCI-H1666): 18.7 nM | IC50 (TGBC11TKB): 12.2 nM | IC50 (SW900): 31.8 nM | IC50 (D-423MG): 2.55 nM | IC50 (CFPAC-1): 14.8 nM | IC50 (OC-314): 2.51 nM | IC50 (A549): 14.1 nM | IC50 (NCI-H2291): > 100 nM | IC50 (H-EMC-SS): 95.6 nM | IC50 (NBsusSR): 0.194 nM | IC50 (KNS-62): 7.7 nM | IC50 (TI-73): 14.6 nM | IC50 (D-566MG): 0.132 nM | IC50 (BT-549): 17.6 nM | IC50 (H9): 0.358 nM | IC50 (LU-135): 28.2 nM | IC50 (ECC10): 3.85 nM

Cc1nc(Nc2ncc(C(=O)Nc3c(C)cccc3Cl)s2)cc(N2CCN(CCO)CC2)n1 [DASATINIB]
IC50 (NCI-H128): > 1280 nM | IC50 (SKM-1): > 1280 nM | IC50 (CP67-MEL): 205 nM | IC50 (EW-12): > 1280 nM | IC50 (NCI-H2107): > 1280 nM | IC50 (RL95-2): 104 nM | IC50 (KP-N-RT-BM-1): > 1280 nM

CCNC(=O)c1noc(-c2cc(C(C)C)c(O)cc2O)c1-c1ccc(CN2CCOCC2)cc1 [LUMINESPIB]
IC50 (MDA-MB-468): 99.9 nM | IC50 (HCC1143): > 256 nM | IC50 (COLO 205): 49.2 nM | IC50 (SNU-475): > 256 nM | IC50 (TT): > 256 nM | IC50 (MFE-296): 23.2 nM | IC50 (DV-90): > 256 nM | IC50 (C-4-II): 122 nM | IC50 (EFE-184): 246 nM | IC50 (PLC-PRF-5): > 256 nM | IC50 (SK-CO-1): 79.9 nM | IC50 (NCI-H1734): 32.3 nM | IC50 (Caov-3 cell line): > 256 nM | IC50 (NCI-H1618): > 256 nM | IC50 (NCI-H2227): > 256 nM | IC50 (SNG-M): 8.56 nM | IC50 (DMS-53): 123 nM | IC50 (NCI-H838): 237 nM | IC50 (CCF-STTG1): 2.97 nM | IC50 (MES-SA): 4.52 nM

CO[C@@]12[C@H](COC(N)=O)C3=C(C(=O)C(C)=C(N)C3=O)N1C[C@@H]1N[C@@H]12 [MITOMYCIN]
IC50 (MDA-MB-468): 345 nM | IC50 (HCC1143): 1070 nM | IC50 (COLO 205): < 62.5 nM | IC50 (SNU-475): 813 nM | IC50 (TT): 3680 nM | IC50 (MFE-296): 286 nM | IC50 (DV-90): 2920 nM | IC50 (C-4-II): 104 nM | IC50 (EFE-184): 1380 nM | IC50 (PLC-PRF-5): 4190 nM | IC50 (SK-CO-1): 202 nM | IC50 (NCI-H1734): 137 nM | IC50 (Caov-3 cell line): 162 nM | IC50 (NCI-H1618): 118 nM | IC50 (NCI-H2227): 6320 nM | IC50 (SNG-M): 134 nM | IC50 (DMS-53): 809 nM | IC50 (NCI-H838): 1230 nM | IC50 (CCF-STTG1): 216 nM | IC50 (MES-SA): 145 nM

C/C=C(/C)C(=O)O[C@H]1C(C)=C2[C@H]([C@@H]1OC(=O)CCCCCCC)[C@@](C)(OC(C)=O)C[C@H](OC(=O)CCC)[C@@]1(O)[C@H]2OC(=O)[C@@]1(C)O [THAPSIGARGIN]
IC50 (MDA-MB-468): 3.98 nM | IC50 (HCC1143): 2.07 nM | IC50 (COLO 205): 3.15 nM | IC50 (SNU-475): > 512 nM | IC50 (TT): 217 nM | IC50 (MFE-296): 2.95 nM | IC50 (DV-90): 28.8 nM | IC50 (C-4-II): 20.6 nM | IC50 (EFE-184): > 512 nM | IC50 (PLC-PRF-5): 91.8 nM | IC50 (SK-CO-1): 17 nM | IC50 (NCI-H1734): 1.48 nM | IC50 (Caov-3 cell line): 37.2 nM | IC50 (NCI-H1618): 10.1 nM | IC50 (NCI-H2227): > 512 nM | IC50 (SNG-M): < 2 nM | IC50 (DMS-53): 380 nM | IC50 (NCI-H838): 35.3 nM | IC50 (CCF-STTG1): 67.3 nM | IC50 (MES-SA): < 2 nM

C[C@]1(c2nc3c(C(N)=O)cccc3[nH]2)CCCN1 [VELIPARIB]
IC50 (NCI-H1048): > 5000 nM | IC50 (NCI-H1666): > 5000 nM | IC50 (TGBC11TKB): > 5000 nM | IC50 (SW900): > 5000 nM | IC50 (SW 1116): > 5000 nM | IC50 (BALL-1): > 5000 nM | IC50 (D-423MG): > 5000 nM | IC50 (CFPAC-1): > 5000 nM | IC50 (OC-314): > 5000 nM | IC50 (A549): > 5000 nM | IC50 (RH-18): > 5000 nM | IC50 (ZR-75-30): > 5000 nM | IC50 (NCI-H2291): > 5000 nM | IC50 (H-EMC-SS): > 5000 nM | IC50 (NBsusSR): > 5000 nM | IC50 (NCI-H2029): > 5000 nM | IC50 (KNS-62): > 5000 nM | IC50 (TI-73): > 5000 nM | IC50 (D-566MG): > 5000 nM | IC50 (BT-549): > 5000 nM | IC50 (H9): > 5000 nM | IC50 (LU-135): > 5000 nM | IC50 (ECC10): > 5000 nM
